In ChEMBL document CHEMBL1201862, “PubChem BioAssay data set” (2004):
Active and inactive are the calls of the source.

Key:
Caspase-6 = target: T1, Caspase-6 (Homo sapiens, UniProt P55212); test: inhibition of CASP6 peptide cleavage – biochemical, VEID-R110 fluorescence, cherry-pick, dose response (AID 720632)
T1 sequence (P55212 whole entry): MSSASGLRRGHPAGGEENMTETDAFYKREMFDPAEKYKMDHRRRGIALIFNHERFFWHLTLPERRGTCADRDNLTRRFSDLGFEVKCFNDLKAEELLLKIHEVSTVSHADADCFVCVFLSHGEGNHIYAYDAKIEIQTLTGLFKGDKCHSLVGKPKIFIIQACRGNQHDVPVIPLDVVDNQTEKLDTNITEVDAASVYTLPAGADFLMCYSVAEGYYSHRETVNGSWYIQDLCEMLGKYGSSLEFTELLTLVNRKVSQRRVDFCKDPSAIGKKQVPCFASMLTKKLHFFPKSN

[1] = target: T2, Bifunctional protein GlmU (Mycobacterium tuberculosis, UniProt P9WMN3); test: Inhibitors of Mycobacterial Glucosamine-1-phosphate acetyl transferase (GlmU). Secondary screen.; set-up: species or system Mycobacterium tuberculosis H37Rv
T2 sequence (P9WMN3 whole entry): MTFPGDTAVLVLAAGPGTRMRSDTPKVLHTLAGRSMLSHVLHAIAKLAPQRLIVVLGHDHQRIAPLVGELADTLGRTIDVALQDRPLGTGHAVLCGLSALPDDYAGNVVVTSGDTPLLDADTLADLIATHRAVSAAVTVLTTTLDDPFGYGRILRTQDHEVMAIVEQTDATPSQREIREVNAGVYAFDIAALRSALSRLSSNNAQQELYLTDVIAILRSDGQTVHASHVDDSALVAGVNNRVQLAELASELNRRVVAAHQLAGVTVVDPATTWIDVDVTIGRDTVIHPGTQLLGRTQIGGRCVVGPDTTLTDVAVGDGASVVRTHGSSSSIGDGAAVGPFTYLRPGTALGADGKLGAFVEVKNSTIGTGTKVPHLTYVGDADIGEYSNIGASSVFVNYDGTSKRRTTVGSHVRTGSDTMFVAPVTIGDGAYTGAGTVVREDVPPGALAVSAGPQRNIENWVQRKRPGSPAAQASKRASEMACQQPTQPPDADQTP

Kallikrein-7 = Kallikrein-7 (Homo sapiens, UniProt P49862); test: Fluorescence Intensity-based biochemical primary high throughput dose response assay to identify activators of kallikrein-7 (K7) zymogen.
Sequence of Kallikrein-7 (P49862 whole entry): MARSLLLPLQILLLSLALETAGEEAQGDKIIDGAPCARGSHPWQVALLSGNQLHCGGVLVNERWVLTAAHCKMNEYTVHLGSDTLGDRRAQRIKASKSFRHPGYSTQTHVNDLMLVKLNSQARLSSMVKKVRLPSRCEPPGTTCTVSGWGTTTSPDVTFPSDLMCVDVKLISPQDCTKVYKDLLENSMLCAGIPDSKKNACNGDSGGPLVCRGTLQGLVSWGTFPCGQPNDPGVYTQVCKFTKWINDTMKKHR

[2] = target: T3, Corticotropin-releasing factor receptor 2/Corticotropin-releasing factor-binding protein (Homo sapiens, UniProt P24387+Q13324); test: activators of CRF receptor 2 with binding protein – uHTS hits, confirmation (AID 602473); format: functional; conditions: read-out: EC50_Mean
T3 sequence (Q13324 whole entry): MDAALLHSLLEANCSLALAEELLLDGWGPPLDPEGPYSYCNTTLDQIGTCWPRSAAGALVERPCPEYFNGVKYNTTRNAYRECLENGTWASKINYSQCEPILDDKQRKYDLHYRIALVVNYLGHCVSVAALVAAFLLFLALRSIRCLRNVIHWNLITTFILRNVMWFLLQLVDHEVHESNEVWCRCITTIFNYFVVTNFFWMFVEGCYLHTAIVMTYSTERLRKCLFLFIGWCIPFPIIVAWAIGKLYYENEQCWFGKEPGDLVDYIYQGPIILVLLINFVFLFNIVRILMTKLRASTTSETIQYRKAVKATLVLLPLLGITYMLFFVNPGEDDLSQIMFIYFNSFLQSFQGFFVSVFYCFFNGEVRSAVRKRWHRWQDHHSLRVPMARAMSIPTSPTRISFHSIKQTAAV
T3 sequence (P24387 whole entry): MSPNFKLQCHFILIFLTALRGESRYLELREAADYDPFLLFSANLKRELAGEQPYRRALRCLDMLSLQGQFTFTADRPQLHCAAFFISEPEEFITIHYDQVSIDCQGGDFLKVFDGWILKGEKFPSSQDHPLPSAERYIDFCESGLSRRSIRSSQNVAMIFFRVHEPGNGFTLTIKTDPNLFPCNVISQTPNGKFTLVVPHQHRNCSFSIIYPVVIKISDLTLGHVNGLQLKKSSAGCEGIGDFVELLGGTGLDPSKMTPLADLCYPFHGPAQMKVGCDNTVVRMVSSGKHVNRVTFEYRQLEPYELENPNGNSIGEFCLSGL

[3] = target: T4, 1-phosphatidylinositol 4,5-bisphosphate phosphodiesterase gamma-1 (Homo sapiens, UniProt P19174); test: Counterscreen for inhibitors of phospholipase C isozymes (PLC-B3): Fluorescence-based biochemical high throughput dose response assay to identify inhibitors of phospholipase C isozymes (PLC-gamma1).
T4 sequence (P19174 whole entry): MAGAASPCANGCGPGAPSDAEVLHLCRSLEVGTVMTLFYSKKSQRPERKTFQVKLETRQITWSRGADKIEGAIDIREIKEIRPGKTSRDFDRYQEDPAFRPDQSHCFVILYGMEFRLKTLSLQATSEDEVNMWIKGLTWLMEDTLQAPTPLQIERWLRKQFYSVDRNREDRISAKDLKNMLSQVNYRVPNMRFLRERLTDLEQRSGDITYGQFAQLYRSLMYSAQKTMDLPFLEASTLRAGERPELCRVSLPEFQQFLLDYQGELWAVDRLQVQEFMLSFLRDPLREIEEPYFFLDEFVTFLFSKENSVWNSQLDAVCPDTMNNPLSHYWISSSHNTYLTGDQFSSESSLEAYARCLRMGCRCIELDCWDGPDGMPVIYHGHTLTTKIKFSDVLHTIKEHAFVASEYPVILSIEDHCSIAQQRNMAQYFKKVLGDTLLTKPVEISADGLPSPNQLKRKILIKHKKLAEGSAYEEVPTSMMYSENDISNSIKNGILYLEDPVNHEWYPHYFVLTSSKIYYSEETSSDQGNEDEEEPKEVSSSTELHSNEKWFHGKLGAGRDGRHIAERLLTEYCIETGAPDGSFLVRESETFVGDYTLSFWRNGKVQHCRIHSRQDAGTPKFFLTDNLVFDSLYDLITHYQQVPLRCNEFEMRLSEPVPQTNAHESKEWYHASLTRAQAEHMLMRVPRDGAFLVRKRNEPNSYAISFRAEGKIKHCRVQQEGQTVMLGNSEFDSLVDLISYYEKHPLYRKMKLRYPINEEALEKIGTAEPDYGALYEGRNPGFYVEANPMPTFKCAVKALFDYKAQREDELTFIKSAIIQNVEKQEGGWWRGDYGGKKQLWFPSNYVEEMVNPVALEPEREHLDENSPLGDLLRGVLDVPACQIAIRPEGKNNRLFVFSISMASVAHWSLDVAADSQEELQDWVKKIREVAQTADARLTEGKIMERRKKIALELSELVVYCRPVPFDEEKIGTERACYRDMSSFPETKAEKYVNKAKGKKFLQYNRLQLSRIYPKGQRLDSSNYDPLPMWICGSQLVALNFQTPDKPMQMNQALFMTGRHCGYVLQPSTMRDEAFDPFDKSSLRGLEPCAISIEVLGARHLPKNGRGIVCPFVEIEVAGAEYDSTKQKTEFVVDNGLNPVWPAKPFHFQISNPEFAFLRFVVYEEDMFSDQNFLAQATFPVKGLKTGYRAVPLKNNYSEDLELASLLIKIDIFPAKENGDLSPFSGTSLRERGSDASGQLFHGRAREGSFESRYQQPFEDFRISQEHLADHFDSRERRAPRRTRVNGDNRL

[4] = target: T5, 1-phosphatidylinositol 4,5-bisphosphate phosphodiesterase beta-3 (Homo sapiens, UniProt Q01970); test: Fluorescence-based biochemical high throughput dose response assay to identify inhibitors of phospholipase C isozymes (PLC-B3).
T5 sequence (Q01970 whole entry): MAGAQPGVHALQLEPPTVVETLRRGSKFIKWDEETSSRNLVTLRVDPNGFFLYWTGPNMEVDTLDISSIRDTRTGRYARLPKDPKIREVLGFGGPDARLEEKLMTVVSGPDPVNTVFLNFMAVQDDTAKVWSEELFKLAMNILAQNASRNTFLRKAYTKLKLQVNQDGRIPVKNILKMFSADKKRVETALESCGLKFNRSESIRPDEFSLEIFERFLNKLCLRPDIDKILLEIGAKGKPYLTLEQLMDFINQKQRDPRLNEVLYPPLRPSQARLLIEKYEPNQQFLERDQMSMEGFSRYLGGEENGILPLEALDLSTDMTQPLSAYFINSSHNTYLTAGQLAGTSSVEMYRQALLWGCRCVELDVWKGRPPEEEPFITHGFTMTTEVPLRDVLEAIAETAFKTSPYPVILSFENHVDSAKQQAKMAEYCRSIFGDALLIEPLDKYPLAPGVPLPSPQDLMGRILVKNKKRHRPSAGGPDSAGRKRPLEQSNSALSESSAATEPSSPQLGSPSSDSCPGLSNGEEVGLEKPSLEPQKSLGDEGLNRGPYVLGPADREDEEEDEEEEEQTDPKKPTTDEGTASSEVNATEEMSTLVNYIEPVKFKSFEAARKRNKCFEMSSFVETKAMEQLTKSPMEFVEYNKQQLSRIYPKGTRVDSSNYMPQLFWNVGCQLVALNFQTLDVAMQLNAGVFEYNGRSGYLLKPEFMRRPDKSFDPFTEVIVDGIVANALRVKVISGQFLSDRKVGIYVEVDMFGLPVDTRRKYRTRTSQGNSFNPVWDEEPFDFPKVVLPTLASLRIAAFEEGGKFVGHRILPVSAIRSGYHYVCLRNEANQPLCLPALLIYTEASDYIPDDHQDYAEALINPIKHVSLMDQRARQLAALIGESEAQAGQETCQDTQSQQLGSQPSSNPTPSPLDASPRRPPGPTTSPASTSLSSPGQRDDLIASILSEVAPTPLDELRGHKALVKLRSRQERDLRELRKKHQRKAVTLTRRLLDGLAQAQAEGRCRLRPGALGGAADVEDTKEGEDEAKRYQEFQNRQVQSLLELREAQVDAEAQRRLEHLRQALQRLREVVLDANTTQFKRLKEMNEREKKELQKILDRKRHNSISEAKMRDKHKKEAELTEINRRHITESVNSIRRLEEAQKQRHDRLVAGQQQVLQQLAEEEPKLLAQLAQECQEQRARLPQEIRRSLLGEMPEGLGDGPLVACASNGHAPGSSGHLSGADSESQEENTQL

[5] = target: T3, Corticotropin-releasing factor receptor 2/Corticotropin-releasing factor-binding protein; test: Dose Response confirmation of uHTS hits for small molecule antagonists of the CRF-binding protein and CRF-R2 receptor complex.; format: functional; conditions: read-out: IC50_Mean
[6] = target: Voltage-dependent T-type calcium channel subunit alpha-1H (Homo sapiens, UniProt O95180); format: functional;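 also: channel activity triggered by adding a high calcium stimulation buffer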
Sequence of Voltage-dependent T-type calcium channel subunit alpha-1H (O95180 whole entry): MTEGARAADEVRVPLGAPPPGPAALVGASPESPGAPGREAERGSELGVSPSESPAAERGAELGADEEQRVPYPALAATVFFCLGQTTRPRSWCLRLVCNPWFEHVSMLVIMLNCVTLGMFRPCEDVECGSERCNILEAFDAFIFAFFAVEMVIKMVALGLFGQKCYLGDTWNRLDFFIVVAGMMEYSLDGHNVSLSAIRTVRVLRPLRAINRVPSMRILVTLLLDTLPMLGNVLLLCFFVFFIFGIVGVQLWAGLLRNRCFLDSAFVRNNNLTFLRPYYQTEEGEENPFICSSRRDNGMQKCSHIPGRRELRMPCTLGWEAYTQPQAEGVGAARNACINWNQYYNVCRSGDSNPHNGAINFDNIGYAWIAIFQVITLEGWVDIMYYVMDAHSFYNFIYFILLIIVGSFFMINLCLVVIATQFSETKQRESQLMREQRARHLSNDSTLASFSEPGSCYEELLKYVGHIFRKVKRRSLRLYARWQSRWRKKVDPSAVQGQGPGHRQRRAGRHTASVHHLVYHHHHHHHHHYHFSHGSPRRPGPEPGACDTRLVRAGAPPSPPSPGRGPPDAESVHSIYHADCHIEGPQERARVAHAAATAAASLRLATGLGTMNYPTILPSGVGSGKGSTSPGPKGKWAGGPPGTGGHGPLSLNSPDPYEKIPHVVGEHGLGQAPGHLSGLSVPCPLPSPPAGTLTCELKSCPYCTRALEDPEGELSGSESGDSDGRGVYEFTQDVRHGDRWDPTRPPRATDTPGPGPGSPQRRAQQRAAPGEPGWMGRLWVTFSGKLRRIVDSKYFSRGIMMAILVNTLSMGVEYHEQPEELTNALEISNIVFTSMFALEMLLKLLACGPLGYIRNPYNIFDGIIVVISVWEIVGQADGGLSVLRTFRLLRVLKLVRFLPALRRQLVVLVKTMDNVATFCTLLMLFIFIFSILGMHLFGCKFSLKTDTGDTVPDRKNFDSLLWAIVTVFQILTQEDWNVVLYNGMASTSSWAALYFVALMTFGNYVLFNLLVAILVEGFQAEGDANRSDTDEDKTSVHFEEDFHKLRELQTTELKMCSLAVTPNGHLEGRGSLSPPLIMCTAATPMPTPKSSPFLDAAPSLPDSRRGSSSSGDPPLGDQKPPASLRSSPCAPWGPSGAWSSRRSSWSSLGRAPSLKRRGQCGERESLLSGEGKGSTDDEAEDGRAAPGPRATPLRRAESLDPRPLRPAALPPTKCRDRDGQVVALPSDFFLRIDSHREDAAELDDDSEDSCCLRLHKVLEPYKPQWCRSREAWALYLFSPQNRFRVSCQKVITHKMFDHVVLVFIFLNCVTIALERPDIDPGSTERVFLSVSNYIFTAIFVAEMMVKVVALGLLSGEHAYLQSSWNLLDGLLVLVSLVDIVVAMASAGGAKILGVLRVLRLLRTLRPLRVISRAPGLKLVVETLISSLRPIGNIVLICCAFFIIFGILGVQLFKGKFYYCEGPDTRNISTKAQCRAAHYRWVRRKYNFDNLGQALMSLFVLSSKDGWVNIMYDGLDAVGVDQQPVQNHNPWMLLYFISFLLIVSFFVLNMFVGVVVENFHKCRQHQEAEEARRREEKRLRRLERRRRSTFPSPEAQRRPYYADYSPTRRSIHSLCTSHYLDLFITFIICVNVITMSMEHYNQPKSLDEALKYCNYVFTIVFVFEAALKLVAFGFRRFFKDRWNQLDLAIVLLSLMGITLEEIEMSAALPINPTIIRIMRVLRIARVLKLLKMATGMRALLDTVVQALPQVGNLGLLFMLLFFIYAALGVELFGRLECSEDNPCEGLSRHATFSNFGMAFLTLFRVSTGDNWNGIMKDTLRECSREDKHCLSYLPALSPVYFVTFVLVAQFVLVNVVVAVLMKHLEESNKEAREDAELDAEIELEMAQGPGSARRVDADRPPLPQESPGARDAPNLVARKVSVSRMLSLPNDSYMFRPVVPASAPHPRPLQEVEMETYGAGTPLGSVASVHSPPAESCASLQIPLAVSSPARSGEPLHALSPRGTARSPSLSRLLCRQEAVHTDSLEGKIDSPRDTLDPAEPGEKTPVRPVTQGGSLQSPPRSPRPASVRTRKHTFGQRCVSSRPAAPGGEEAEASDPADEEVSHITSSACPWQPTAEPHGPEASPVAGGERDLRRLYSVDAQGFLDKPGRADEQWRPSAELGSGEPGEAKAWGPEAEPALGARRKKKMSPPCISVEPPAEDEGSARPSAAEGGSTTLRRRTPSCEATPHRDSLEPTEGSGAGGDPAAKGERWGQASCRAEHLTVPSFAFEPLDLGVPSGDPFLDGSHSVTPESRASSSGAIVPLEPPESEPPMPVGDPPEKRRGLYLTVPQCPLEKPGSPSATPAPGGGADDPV

[7] = target: Induced myeloid leukemia cell differentiation protein Mcl-1 (Homo sapiens, UniProt Q07820); format: functional
Sequence of Induced myeloid leukemia cell differentiation protein Mcl-1 (Q07820 whole entry): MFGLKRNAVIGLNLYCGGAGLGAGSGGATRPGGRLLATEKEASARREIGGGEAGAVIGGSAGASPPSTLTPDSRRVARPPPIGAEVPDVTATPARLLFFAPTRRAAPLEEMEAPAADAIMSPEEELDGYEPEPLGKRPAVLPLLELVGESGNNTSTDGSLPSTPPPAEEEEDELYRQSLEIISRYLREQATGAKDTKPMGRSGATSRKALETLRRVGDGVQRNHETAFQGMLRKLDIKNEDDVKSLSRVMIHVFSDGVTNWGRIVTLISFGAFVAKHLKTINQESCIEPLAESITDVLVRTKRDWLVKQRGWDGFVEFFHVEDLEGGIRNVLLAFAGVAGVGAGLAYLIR

O=C(CSc1ccsc1[N+](=O)[O-])NCc1ccco1
AC50 (Caspase-6): 9.2 µM (active)

Cc1ccc(OCC(=O)N/N=C\c2ccc(-c3cccc(C(=O)O)c3)o2)c(C)c1
IC50 [1]: 137 µM (active)

CC(=O)Nc1ccc(-c2nc3ccc(NC(C)=O)cc3o2)cc1
EC50 (Kallikrein-7): > 69.5 µM (inactive)

O=S(=O)(c1ccccc1)c1cnn(-c2ccccc2)c1-c1ccc(F)cc1
EC50 [2]: > 53 µM (inactive) | IC50 [3]: > 123 µM (inactive) | IC50 [4]: > 123 µM (inactive) | IC50 [5]: > 47.1 µM (inactive) | EC50 [6]: 5.16 µM (active)

Cc1ccc(-c2cc(C(=O)OCC(=O)N(C)C3CCS(=O)(=O)C3)c3ccccc3n2)o1 (stereo not given)
IC50 [7]: 5.12 µM (active) | EC50 (Kallikrein-7): 6.97 µM (active)
